Reference: patent US20070134281A1, “Investigate the potential of using beetle odours to deter slugs in vining peas” (priority 2004, published 2007)
Like-named read-outs stand apart in the source and are kept apart here.

Experiments:
[1] = test system: Deroceras reticulatum slugs; assay: Glasshouse study of slug feeding damage on growing pea plants; type: in vivo; conditions: 2nd day of test
Description: A suitable experimental design had to be substituted for this glasshouse study, based on the principles to show avoidance behaviour. This was also remarkably achieved on a five point scale to record slug behaviour, under a simple experimental procedure which lasted for only five days, to conclude this semi-field trial just by using the existing facilities alone at […] Housewares Ltd who manufactured their items for supermarket sale, provided plastic bowls in different colours to suit a random style experiment to show this current field study inside the glasshouse. Whifford Plastics Ltd produced fluon, a test chemical which had been used before to stop slugs from escaping the planned experiment in Cardiff University, was sold in litres sufficient to cover the sides of these plastic bowls by using only a simple paint brush. F. A Smith a soil merchant supplying for Cardiff University Horticultural services at Talybont, produced John Innes Potting compost No 2 commonly used in a nursery for growing peas, ideally because the sterilised soil with peat and grit added has a base fertiliser for quick germination. […] To keep the peas nice and damp and the slugs happy, the multipurpose peat based compost from the local B&Q store was adequate to support the trays of peas inside the plastic bowls which was 2⁄3 filled with this moist peat and the tray positioned so that the rim is flush with the surface of the peat. All the slugs used in this experiment were collected from the fields around Talybont, where they were actively seen to be searching for food lurking under the plants during the early hours of the morning at sunrise and pre-starved for a further 24 hours at 15° C., 80% RH, 12 hour light: dark regime, prior to testing inside the glasshouse. These were also the same species of slugs causing contamination during the routine operation in […] has a latin name Deroceras reticulatum, already well known for its physical damage to other crops under use in the UK. […]

[2] = test system: Deroceras reticulatum slugs; assay: Petri dish choice test (control and test sector) with test solutions made from commercial organic acids; type: in vivo; conditions: 24 hour period, n=10 replicates, laboratory
Protocol: Next, using the results obtained from Mass spectrometry to make up the test solutions with these organic acids, the behaviour of the slugs in the presence of beetle odours was now investigated. Initially this test was carried out inside the laboratory in the manner previously shown for pygidial secretions using a control and test sector to show the slug's choice overnight within a petri dish. […] However the results of all these tests still remains to be analysed and will appear in the PhD thesis only after using a computer software for image analysis.

[3] = cited from earlier work

Structure (SMILES)	Feeding damage by slugs on growing pea plants [1]	Avoidance of treated area (proportion of total area of petri dish covered by slug trails) [2]	Solubility in water ([3]; 20° C.)	Solubility in water ([3]; cold water)	Solubility in water ([3]; hot water)
CC(=O)O [Acetic Acid]	Concern	–	–	–	–
O=CO [Formic Acid]	–	scare slugs stiff	–	–	–
C=C(C)C(=O)O [Methacrylic Acid]	damage was effectively reduced	–	9.7 g/100 ml (20° C.)	–	–
C/C=C(\C)C(=O)O [Tiglic Acid]	Concern	–	–	sparingly	soluble
